Assay results published in patent publication US9408827B2, “Sheet for cutaneous application containing vitamin E or an ester thereof” (IneSalus Corp., priority 2013, dated 2016).

Legend:
[1] = test system: reconstituted human epidermis Epi-200 EpiDerm™; assay: Evaluation of the cellular vitality by MTT assay (EpiDerm Skin Irritation Test EPI-200-SIT)
Method: The tolerability of the sheets according to the invention was evaluated by means of an in-vitro assay on models of reconstituted epidermis for evaluation of the cumulative irritation.
The assay in question was based on the In vitro Epiderm™ Skin Irritation Test (EPI-200-SIT) developed by the MatTek Corporation, which uses the model of reconstituted human epidermis Epi-200 EpiDerm™.
The assay consists in topical application of the material under testing on the reconstituted epidermis for contact times equal to or greater than 18 hours. The irritation potential is determined by means of evaluation of the cellular vitality using the MTT assay.
Conditions for Conducting the Assay for Evaluation of the Cellular Vitality
Tissue used: EPI-200-SIT EpiDerm™
Culture medium: EPI-100-MM-HCF-60
(§1) Incubation conditions: +37° C. in a 5% CO2 atmosphere
(§2) Treatment with the sample: • continuous contact and incubation for 18 hours (single) • continuous contact and incubation for 7 days (double)
(§3) Application was carried out by applying about 1 cm^2 of sample (i.e. of the sheet according to the invention obtained as per the example given above) per insert.
(§4) Controls Performed for the First Evaluation (18 Hours): • Negative control after 18 hours: inserts not treated • Positive control: inserts treated with 0.5% SDS (Sodium Dodecylsulphate) in sterile water during 18 hours of incubation; […]

[2] = test system: reconstituted human epidermis Epi-200 EpiDerm™; assay: Release of lactate dehydrogenase (LDH) in the culture medium; details: 18-hour treatment; Tukey Kramer Multiple Comparisons Test
From the text: Further information for better defining the irritation potential was obtained from subsequent measurement of the following parameters: • evaluation of the release, in the culture medium, of the lactate dehydrogenase (LDH), a cytoplasmic enzyme, release of which indicates loss of integrity of the cellular membrane; • evaluation of the release, in the culture medium, of pro-inflammatory cytokine by means of ELISA (Enzyme Linked Immunosorbent Assay).
Tissue used: EPI-200-SIT EpiDerm™
Culture medium: EPI-100-MM-HCF-60
as §1, §2, §3, §4
Evaluation in the culture medium obtained after the incubation period of the sample with the epidermis model. The culture medium is incubated with a specific reagent so as to allow quantitive determination of the lactate dehydrogenase at 490 nm.

[3] = test system: reconstituted human epidermis Epi-200 EpiDerm™; assay: Release of IL-1α in the culture medium (ELISA); details: 18-hour treatment; Tukey Kramer Multiple Comparisons Test
Method: Tissue used: EPI-200-SIT EpiDerm™
Culture medium: EPI-100-MM-HCF-60
as §1, §2
Controls Performed for the First Evaluation (18 Hours): • Negative control after 18 hours: inserts not treated • Positive control: inserts treated with 0.5% SDS (Sodium Dodecylsulphate) in sterile water during 18 hours of incubation;
Controls Performed for the 7-Day Evaluation: • Negative control: inserts not treated with the sample and kept for 7 days in the same incubation conditions as those treated with the sample.
Evaluation of the Release of IL-1α in the Culture Medium:
Evaluation in the culture medium obtained after the period of incubation of the sample with EPI-200. The release is measured by means of specific ELISA.

CCCCCCCCCCCCOS(=O)(=O)[O-].[Na+] [Positive control, Sodium Dodecylsulphate]
Average value of OD ± SD (MTT) ([1]; 18-hour continuous contact and incubation): 0.185 ± 0.004
Average value of the % vitality (MTT) ([1]; 18-hour treatment, relative to negative control = 100%): 8.40 ± 0.17%
Release of LDH, statistical comparison in relation to the negative control [2]: *** (*** p < 0.001 extremely significant variation)
Release of IL-1α, statistical comparison in relation to the negative control [3]: *** (*** p < 0.001 extremely significant variation)
